We go through 21 molecules from patent US7528136B2, “Prolinamide derivatives as NK3 antagonists” (Hoffmann-La Roche Inc., priority 2007, dated 2009).

Assay [1] has as its target T1, recombinant human NK3 receptor (Homo sapiens, UniProt P29371).
T1 construct: expressed in transfected cells; host or cells: HEK293 cells (transient expression), membranes
T1 sequence (P29371 1-465): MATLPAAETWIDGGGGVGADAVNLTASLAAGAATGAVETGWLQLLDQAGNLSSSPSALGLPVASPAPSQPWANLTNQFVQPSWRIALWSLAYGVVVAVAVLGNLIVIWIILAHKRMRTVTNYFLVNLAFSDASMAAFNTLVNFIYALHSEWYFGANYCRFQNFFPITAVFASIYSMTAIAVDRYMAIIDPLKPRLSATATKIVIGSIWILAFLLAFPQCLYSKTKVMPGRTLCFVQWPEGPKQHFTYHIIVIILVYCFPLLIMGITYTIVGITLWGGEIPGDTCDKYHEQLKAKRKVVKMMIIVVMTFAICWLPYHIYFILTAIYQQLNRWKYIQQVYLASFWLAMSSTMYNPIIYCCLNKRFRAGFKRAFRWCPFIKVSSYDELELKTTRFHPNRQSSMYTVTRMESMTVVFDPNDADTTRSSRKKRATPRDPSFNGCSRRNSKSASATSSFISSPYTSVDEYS
The assay can be described thus: [3H]SR142801 competition binding assay. The settings on record: [3H]SR142801, membranes from HEK293 cells transiently expressing hNK3; read-out: Data (hNK-3 receptor affinity). Here is the method:
[^3H]SR142801 Competition Binding Assay
hNK3 receptor binding experiment were performed using [^3H]SR142801 (Catalog No. TRK1035, specific activity: 74.0 Ci/mmol, Amersham, GE Healthcare UK limited, Buckinghamshire, UK) and membrane isolated from HEK293 cells transiently expressing recombinant human NK3 receptor. After thawing, the membrane homogenates were centrifuged at 48,000×g for 10 min at 4° C., the pellets were resuspended in the 50 mM Tris-HCl, 4 mM MnCl2, 1 μM phosphoramidon, 0.1% BSA binding buffer at pH 7.4 to a final assay concentration of 5 μg protein/well. For inhibition experiments, membranes were incubated with [^3H]SR142801 at a concentration equal to KD value of radioligand and 10 concentrations of the inhibitory compound (0.0003-10 μM) (in a total reaction volume of 500 μl) for 75 min at room temperature (RT). At the end of the incubation, membranes were filtered onto unitfilter (96-well white microplate with bonded GF/C filter preincubated 1 h in 0.3% PEI+0.3% BSA, Packard BioScience, Meriden, Conn.) with a Filtermate 196 harvester (Packard BioScience) and washed 4 times with ice-cold 50 mM Tris-HCl, pH 7.4 buffer. Nonspecific binding was measured in the presence of 10 μM SB222200 for both radioligands. The radioactivity on the filter was counted (5 min) on a Packard Top-count microplate scintillation counter with quenching correction after addition of 45 μl of microscint 40 (Can berra Packard S. A., Zürich, Switzerland) and shaking for 1 h. Inhibition curves were fitted according to the Hill equation: y=100/(1+(x/IC50)^nH), where nH=slope factor using Excel-fit 4 software (Microsoft). IC50 values were derived from the inhibition curve and the affinity constant (Ki) values were calculated using the Cheng-Prussoff equation Ki=IC50/(1+[L]/KD) where [L] is the concentration of radioligand and KD is its dissociation constant at the receptor, derived from the saturation isotherm. All experiments were performed in duplicate and the mean±standard error (SEM) of the individual Ki values was calculated.

Another assay concerns schizophrenia. The settings on record: phase II trial, cited from earlier work.

Each structure is given as a SMILES string.

For `N#Cc1ccccc1N1CCN(C(=O)[C@@H]2C[C@@H](NCc3ccc(F)cc3F)CN2Cc2ccccc2)CC1` [Example 88, 2-{4-[(2S,4R)-1-Benzyl-4-(2,4-difluoro-benzylamino)-pyrrolidine-2-carbonyl]-piperazin-1-yl}-benzonitrile], the Ki in assay [1] amounted to 97 nM.

On to `N#Cc1ccccc1N1CCN(C(=O)[C@@H]2C[C@H](NCc3ccccc3C(F)(F)F)CN2Cc2ccccc2)CC1` [Example 36, 2-{4-[(2S,4S)-1-Benzyl-4-(2-trifluoromethyl-benzylamino)-pyrrolidine-2-carbonyl]-piperazin-1-yl}-benzonitrile], for which the Ki in assay [1] is 94.8 nM.

Turning to `N#Cc1ccccc1N1CCN(C(=O)[C@@H]2C[C@H](NCc3cccc(Cl)c3)CN2Cc2ccccc2)CC1` [Example 40, 2-{4-[(2S,4S)-1-Benzyl-4-(3-chloro-benzylamino)-pyrrolidine-2-carbonyl]-piperazin-1-yl}-benzonitrile], in assay [1], the Ki was 71 nM.

For `N#Cc1ccccc1N1CCN(C(=O)[C@@H]2C[C@H](NCc3cccc(Cl)c3F)CN2Cc2ccccc2)CC1` [Example 49, 2-{4-[(2S,4S)-1-Benzyl-4-(3-chloro-2-fluoro-benzylamino)-pyrrolidine-2-carbonyl]-piperazin-1-yl}-benzonitrile], the Ki in assay [1] stood at 48 nM.

In the case of `CC(=O)N(C)C1(c2ccccc2)CCN(CCC[C@]2(c3ccc(Cl)c(Cl)c3)CCCN(C(=O)c3ccccc3)C2)CC1` [SR 142,801, Osanetant], in the assay with schizophrenia (altered behavior, delusion, hallucinations, extreme emotions, excited motor activity, incoherent speech), the “activity on positive symptoms of schizophrenia” value was “active”. Further, the “activity in the treatment of negative symptoms” value with schizophrenia (depression, anhedonia, social isolation, memory and attention deficits) was “inactive”.

With `CN(Cc1cc(C(F)(F)F)cc(C(F)(F)F)c1)[C@H]1C[C@@H](C(=O)N2CCN(c3cccc(C(F)(F)F)c3)CC2)N(Cc2cccc(Cl)c2)C1` [Example 68, [(2S,4S)-4-[(3,5-Bis-trifluoromethyl-benzyl)-methyl-amino]-1-(3-chloro-benzyl)-pyrrolidin-2-yl]-[4-(3-trifluoromethyl-phenyl)-piperazin-1-yl]-methanone], in assay [1], the Ki was found to be 41.2 nM.

With `COc1cc(CN[C@H]2C[C@@H](C(=O)N3CCN(c4ccccc4C#N)CC3)N(Cc3ccccc3)C2)cc(OC)c1` [Example 34, 2-{4-[(2S,4S)-1-Benzyl-4-(3,5-dimethoxy-benzylamino)-pyrrolidine-2-carbonyl]-piperazin-1-yl}-benzonitrile], the Ki in assay [1] amounted to 44 nM.

On to `O=C([C@@H]1C[C@@H](NCc2ccc(F)cc2F)CN1Cc1ccccc1)N1CCN(c2cccc(C(F)(F)F)c2)CC1` [Example 87, [(2S,4R)-1-Benzyl-4-(2,4-difluoro-benzylamino)-pyrrolidin-2-yl]-[4-(3-trifluoromethyl-phenyl)-piperazin-1-yl]-methanone], for which the Ki in assay [1] was found to be 52 nM.

Turning to `N#Cc1ccccc1N1CCN(C(=O)[C@@H]2C[C@H](NCc3ccc(F)c(Cl)c3)CN2Cc2ccccc2)CC1` [Example 45, 2-{4-[(2S,4S)-1-Benzyl-4-(3-chloro-4-fluoro-benzylamino)-pyrrolidine-2-carbonyl]-piperazin-1-yl}-benzonitrile], the Ki in assay [1] stood at 27.9 nM.

Regarding `CN(Cc1cc(C(F)(F)F)cc(C(F)(F)F)c1)[C@H]1C[C@@H](C(=O)N2CCN(c3cccc(C(F)(F)F)c3)CC2)N(Cc2ccccc2)C1` [Example 62, {(2S,4S)-1-Benzyl-4-[(3,5-bis-trifluoromethyl-benzyl)-methyl-amino]-pyrrolidin-2-yl}-[4-(3-trifluoromethyl-phenyl)-piperazin-1-yl]-methanone], the Ki in assay [1] came out at 39 nM.

`O=C([C@@H]1C[C@H](NCc2ccc(F)cc2F)CN1Cc1ccccc1)N1CCN(c2ccccc2)CC1` [Example 7, [(2S,4S)-1-Benzyl-4-(2,4-difluoro-benzylamino)-pyrrolidin-2-yl]-(4-phenyl-piperazin-1-yl)-methanone]: the Ki in assay [1] is 63 nM.

`N#Cc1ccccc1N1CCN(C(=O)[C@@H]2C[C@H](NCc3cc(C(F)(F)F)ccc3Cl)CN2Cc2ccccc2)CC1` [Example 38, 2-{4-[(2S,4S)-1-Benzyl-4-(2-chloro-5-trifluoromethyl-benzylamino)-pyrrolidine-2-carbonyl]-piperazin-1-yl}-benzonitrile]: the Ki in assay [1] came to 58 nM.

On to `N#Cc1ccccc1N1CCN(C(=O)[C@@H]2C[C@H](NCc3ccc(Cl)c(Cl)c3)CN2Cc2ccccc2)CC1` [Example 48, 2-{4-[(2S,4S)-1-Benzyl-4-(3,4-dichloro-benzylamino)-pyrrolidine-2-carbonyl]-piperazin-1-yl}-benzonitrile], for which, in assay [1], the Ki was determined as 29 nM.

Regarding `O=C([C@@H]1C[C@H](NCc2ccc(F)cc2F)CN1Cc1ccccc1)N1CCN(c2ccccc2Cl)CC1` [Example 10, [(2S,4S)-1-Benzyl-4-(2,4-difluoro-benzylamino)-pyrrolidin-2-yl]-[4-(2-chloro-phenyl)-piperazin-1-yl]-methanone], in assay [1], the Ki was 56.7 nM.

For the molecule `O=C([C@@H]1C[C@H](NCc2ccc(F)cc2F)CN1Cc1ccccc1)N1CCN(c2cccc(C(F)(F)F)c2)CC1` [Example 5, [(2S,4S)-1-Benzyl-4-(2,4-difluoro-benzylamino)-pyrrolidin-2-yl]-[4-(3-trifluoromethyl-phenyl)-piperazin-1-yl]-methanone], in assay [1], the Ki was 37.6 nM.

As for `N#Cc1ccccc1N1CCN(C(=O)C2CC(NCc3ccc(F)cc3F)CN2Cc2cccc(F)c2)CC1` (stereo not shown) [Example 54, 2-{4-[4-(2,4-Difluoro-benzylamino)-1-(3-fluoro-benzyl)-pyrrolidine-2-carbonyl]-piperazin-lyl}-benzonitrile], the Ki in assay [1] was 47 nM.

For the molecule `N#Cc1ccccc1N1CCN(C(=O)[C@@H]2C[C@H](NCc3ccc(F)cc3F)CN2Cc2ccccc2)CC1` [Example 1, 2-{4-[(2S,4S)-1-Benzyl-4-(2,4-difluoro-benzylamino)-pyrrolidine-2-carbonyl]-piperazin-1-yl}-benzonitrile], the Ki in assay [1] was determined as 12.2 nM.

For the molecule `CN(Cc1cc(C(F)(F)F)cc(C(F)(F)F)c1)[C@H]1C[C@@H](C(=O)N2CCN(c3ccccc3C#N)CC2)N(Cc2ccccc2)C1` [Example 32, 2-(4-{(2S,4S)-1-Benzyl-4-[(3,5-bis-trifluoromethyl-benzyl)-methyl-amino]-pyrrolidine-2-carbonyl}-piperazin-1-yl)-benzonitrile], the Ki in assay [1] came to 64.4 nM.

Consider `O=C([C@@H]1C[C@H](NCc2ccc(F)cc2F)CN1Cc1ccccc1)N1CCN(c2ccc(F)cc2)CC1` [Example 8, [(2S,4S)-1-Benzyl-4-(2,4-difluoro-benzylamino)-pyrrolidin-2-yl]-[4-(4-fluoro-phenyl)-piperazin-1-yl]-methanone], for which the Ki in assay [1] was found to be 64.8 nM.

As for `COc1cc2c(cc1OC)CN(C(=O)[C@@H]1C[C@H](NCc3ccc(F)cc3F)CN1Cc1ccccc1)CC2` [Example 13, [(2S,4S)-1-Benzyl-4-(2,4-difluoro-benzylamino)-pyrrolidin-2-yl]-(6,7-dimethoxy-3,4-dihydro-1H-isoquinolin-2-yl)-methanone], the Ki in assay [1] came out at 39.4 nM.

As for `COc1ccccc1N1CCN(C(=O)[C@@H]2C[C@H](NCc3ccc(F)cc3F)CN2Cc2ccccc2)CC1` [Example 12, [(2S,4S)-1-Benzyl-4-(2,4-difluoro-benzylamino)-pyrrolidin-2-yl]-[4-(2-methoxy-phenyl)-piperazin-1-yl]-methanone], the Ki in assay [1] came to 23.5 nM.
